In US20240262822A1, “WDR5 INHIBITORS AND MODULATORS” (Vanderbilt University, priority 2021, published 2024) one finds Ki and GI50 data, which are given here for 19 compounds.

Each structure is given as a SMILES string. pKi: −log10 of the molar value.

For one assay, the target named is T1, WDR5 (Homo sapiens, UniProt P61964).
T1 construct: WDR5-His Tag (A23, residues 24-334) is expressed and purified in our lab; made in house
Put plainly: Time Resolved-Fluorescence Energy Transfer (TR-FRET) competition assay, displacement of 10mer-Thr-FAM probe from His-tagged WDR5. It counts as binding. To be noted: WDR5-His tag 2 nM, 10mer-Thr-FAM 150 nM, 60 minutes at room temperature; read-out: Ki for Exemplified Compounds for Inhibition of WDR5 by TR-FRET assay. In a few lines:
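Competitive TR-FRET using 2 nM His-tagged WDR5 (residues 24-334), 1 nM Tb-anti-His antibody and 150 nM 10mer-Thr-FAM probe; compounds in a 10-point, 5-fold series from 5 μM, ≤1% DMSO. Incubated 60 min at room temperature in PBS with 300 mM NaCl, 0.5 mM TCEP, 0.1% CHAPS, pH 7.2; 520/495 nm emission gave IC50, converted to Ki by the Wang equation.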
A general note: Time-resolved FRET reads energy transfer from a long-lived donor to a nearby acceptor.

Assay [1] deals with MV4:11 human cancer cell lines. In words: Cellular viability / anti-proliferative activity, CellTiter-Glo, 5 day protocol. The class given is cell-based. To be noted: Homo sapiens, MV4-11, 120 h, MV4:11 cells, 5 day incubation, read-out: GI50 for representative compounds on cellular proliferation of MV4:11 human cancer cell lines. How it is done:
Anti-proliferative activity using MLL-harboring cell lines. MV-4-11 and K562 cells are grown in IMDM media supplemented with 10% FBS and 1% penicillin/streptomycin, Molm-13 cells are cultured in RPMI-1640 media supplemented with 10% FBS and 1% penicillin/streptomycin. Viability assays are performed by dispensing 200 cells at 7200 cells/mL into each well of an opaque 384-well plate and adding compounds at the indicated concentrations in a final volume of 32 μL and a final concentration of DMSO of 0.3% for all samples. A certain range of compound concentrations is made through a series of 2-fold dilutions starting 30 μM at the highest, total 22 dilutions. After a set incubation period, 5 day protocol, the viability of cells in each well is assessed using the CellTiter-Glo assay (Promega), read on a 96 Microplane Luminometer (Cytation 3, BioTek). Serial dilutions of each cell type are performed in all assays to generate standard curves and the final densities of cells are determined within the dynamic range of the instrument. GI50 values are calculated based on XLfit software (IDBS, Guildford, UK) with Sigmoidal Dose-Response Model. Each compound is tested in minimum of two replicates. Data are expressed as mean.
A general note: ATP-based viability assays read luminescence as a measure of living cells.

The term pKi denotes −log10 of the Ki, conventionally taken in molar units. As to `CCc1cc2c(N3CCc4c(cc(Cn5ccnc5)cc4-c4cn(C)nc4C(F)(F)F)C3=O)ccnc2c(OCCOC)n1` [Example 33, 7-((1H-Imidazol-1-yl)methyl)-2-(6-ethyl-8-(2-methoxyethoxy)-1,7-naphthyridin-4-yl)-5-(1-methyl-3-(trifluoromethyl)-1H-pyrazol-4-yl)-3,4-dihydroisoquinolin-1(2H)-one], the pKi at WDR5 is greater than 10.70. Further, the GI50 in assay [1] was less than 20 nM.

Consider `CCc1cc2c(N3CCc4c(cc(Cn5ccnc5)cc4-c4cn(C)nc4C(F)(F)F)C3=O)ccnc2c(N2CCCC2)n1` [Example 34, 7-((1H-Imidazol-1-yl)methyl)-2-(6-ethyl-8-(pyrrolidin-1-yl)-1,7-naphthyridin-4-yl)-5-(1-methyl-3-(trifluoromethyl)-1H-pyrazol-4-yl)-3,4-dihydroisoquinolin-1(2H)-one], for which the negative logarithm of the Ki (pKi) on WDR5 was greater than 10.70. Further, the GI50 in assay [1] is 75 nM.

Take `CCc1cc2c(N3CCc4c(cc(Cn5ccnc5)cc4-c4cn(C)nc4C(F)(F)F)C3=O)ccnc2c(-n2cccc2)n1` [Example 35, 7-((1H-Imidazol-1-yl)methyl)-2-(6-ethyl-8-(1H-pyrrol-1-yl)-1,7-naphthyridin-4-yl)-5-(1-methyl-3-(trifluoromethyl)-1H-pyrazol-4-yl)-3,4-dihydroisoquinolin-1(2H)-one]: the pKi on WDR5 is greater than 10.70. Moreover, in assay [1], the GI50 was 47 nM.

For `CCOc1nc(CC)cc2c(N3CCc4c(cc(Cn5ccnc5)cc4-c4cn(C)nc4C(F)(F)F)C3=O)ccnc12` [Example 36, 7-((1H-Imidazol-1-yl)methyl)-2-(8-ethoxy-6-ethyl-1,7-naphthyridin-4-yl)-5-(1-methyl-3-(trifluoromethyl)-1H-pyrazol-4-yl)-3,4-dihydroisoquinolin-1(2H)-one], the pKi at WDR5 is greater than 10.70. Besides, in assay [1], the GI50 is less than 20 nM.

Take `CCc1cc2c(N3CCc4c(cc(Cn5ccnc5)cc4-c4cn(C)nc4C(F)(F)F)C3=O)ccnc2c(CC)n1` [Example 37, 7-((1H-Imidazol-1-yl)methyl)-2-(6,8-diethyl-1,7-naphthyridin-4-yl)-5-(1-methyl-3-(trifluoromethyl)-1H-pyrazol-4-yl)-3,4-dihydroisoquinolin-1(2H)-one]: on WDR5, the pKi is greater than 10.70. In addition, the GI50 in assay [1] turned out to be 96 nM.

Consider `CCc1cc2c(N3CCc4c(cc(Cn5ccnc5)cc4-c4cn(C)nc4C(F)(F)F)C3=O)ccnc2c(OCC(F)F)n1` [Example 39, 7-((1H-Imidazol-1-yl)methyl)-2-(8-(2,2-difluoroethoxy)-6-ethyl-1,7-naphthyridin-4-yl)-5-(1-methyl-3-(trifluoromethyl)-1H-pyrazol-4-yl)-3,4-dihydroisoquinolin-1(2H)-one], for which the pKi on WDR5 was greater than 10.70. The GI50 in assay [1] is less than 20 nM.

For the compound `CCc1cc2c(N3CCc4c(cc(Cn5ccnc5)cc4-c4cn(C)nc4C(F)(F)F)C3=O)ncnc2cc1OC` [Example 43, 7-((1H-Imidazol-1-yl)methyl)-2-(6-ethyl-7-methoxyquinazolin-4-yl)-5-(1-methyl-3-(trifluoromethyl)-1H-pyrazol-4-yl)-3,4-dihydroisoquinolin-1(2H)-one], the pKi at WDR5 is greater than 10.70. For the same compound, the GI50 in assay [1] was less than 20 nM.

As to `CCc1cc2c(N3CCc4c(cc(Cn5ccnc5)cc4-c4cn(C)nc4C(F)(F)F)C3=O)ccnc2c(N2CCOCC2)n1` [Example 44, 7-((1H-Imidazol-1-yl)methyl)-2-(6-ethyl-8-morpholino-1,7-naphthyridin-4-yl)-5-(1-methyl-3-(trifluoromethyl)-1H-pyrazol-4-yl)-3,4-dihydroisoquinolin-1(2H)-one], the pKi on WDR5 is greater than 10.70. Further, the GI50 in assay [1] is less than 20 nM.

On to `CCc1cc2c(N3CCc4c(cc(Cn5ccnc5)cc4-c4cn(C)nc4C(F)(F)F)C3=O)ccnc2c(-c2ccncc2)n1` [Example 45, 7-((1H-Imidazol-1-yl)methyl)-2-(6-ethyl-8-(pyridin-4-yl)-1,7-naphthyridin-4-yl)-5-(1-methyl-3-(trifluoromethyl)-1H-pyrazol-4-yl)-3,4-dihydroisoquinolin-1(2H)-one], for which the pKi on WDR5 was greater than 10.70. For the same compound, the GI50 in assay [1] worked out at 21 nM.

In the case of `CCc1cc2c(N3CCc4c(cc(Cn5ccnc5)cc4-c4cn(C)nc4C(F)(F)F)C3=O)ccnc2c(N2CCN(C)CC2)n1` [Example 46, 7-((1H-Imidazol-1-yl)methyl)-2-(6-ethyl-8-(4-methylpiperazin-1-yl)-1,7-naphthyridin-4-yl)-5-(1-methyl-3-(trifluoromethyl)-1H-pyrazol-4-yl)-3,4-dihydroisoquinolin-1(2H)-one], the pKi at WDR5 is greater than 10.70. Further, the GI50 in assay [1] is less than 20 nM.

Turning to `CCc1cc2c(N3CCc4c(cc(Cn5ccnc5)cc4-n4nc(C)cc4C(F)(F)F)C3=O)ccnc2c(OC)n1` [Example 47, 7-((1H-Imidazol-1-yl)methyl)-2-(6-ethyl-8-methoxy-1,7-naphthyridin-4-yl)-5-(3-methyl-5-(trifluoromethyl)-1H-pyrazol-1-yl)-3,4-dihydroisoquinolin-1(2H)-one], the pKi on WDR5 is 10.62. Besides, the GI50 in assay [1] stood at 296 nM.

Consider `CCc1cc2c(N3CCc4c(cc(Cn5ccnc5)cc4-c4cn(C)nc4C(F)(F)F)C3=O)cc(C)nc2c(OC)n1` [Example 48, 7-((1H-Imidazol-1-yl)methyl)-2-(6-ethyl-8-methoxy-2-methyl-1,7-naphthyridin-4-yl)-5-(1-methyl-3-(trifluoromethyl)-1H-pyrazol-4-yl)-3,4-dihydroisoquinolin-1(2H)-one], for which the pKi at WDR5 is greater than 10.70. Further, the GI50 in assay [1] is less than 20 nM.

`COc1cc2nncc(N3CCc4c(cc(Cn5ccnc5)cc4-c4cn(C)nc4C(F)(F)F)C3=O)c2cc1OC` [Example 49, 7-((1H-Imidazol-1-yl)methyl)-2-(6,7-dimethoxycinnolin-4-yl)-5-(1-methyl-3-(trifluoromethyl)-1H-pyrazol-4-yl)-3,4-dihydroisoquinolin-1(2H)-one]: the pKi at WDR5 is greater than 10.70. Moreover, in assay [1], the GI50 is less than 20 nM.

As for `COc1cc(OC)c2ncnc(N3CCc4c(cc(Cn5ccnc5)cc4-c4cn(C)nc4C(F)(F)F)C3=O)c2c1` [Example 50, 7-((1H-Imidazol-1-yl)methyl)-2-(6,8-dimethoxyquinazolin-4-yl)-5-(1-methyl-3-(trifluoromethyl)-1H-pyrazol-4-yl)-3,4-dihydroisoquinolin-1(2H)-one], the pKi at WDR5 is 10.66. In assay [1], the GI50 was less than 20 nM.

On to `CCc1cc(OC)c2nc(C)nc(N3CCc4c(cc(Cn5ccnc5)cc4-c4cn(C)nc4C(F)(F)F)C3=O)c2c1` [Example 51, 7-((1H-Imidazol-1-yl)methyl)-2-(6-ethyl-8-methoxy-2-methylquinazolin-4-yl)-5-(1-methyl-3-(trifluoromethyl)-1H-pyrazol-4-yl)-3,4-dihydroisoquinolin-1(2H)-one], for which the pKi at WDR5 was 10.66. The GI50 in assay [1] was less than 20 nM.

On to `CCc1cc2c(N3CCc4c(cc(Cn5ccnc5)cc4-c4cn(C)nc4C(F)(F)F)C3=O)ccnc2c(COC)n1` [Example 52, 7-((1H-Imidazol-1-yl)methyl)-2-(6-ethyl-8-(methoxymethyl)-1,7-naphthyridin-4-yl)-5-(1-methyl-3-(trifluoromethyl)-1H-pyrazol-4-yl)-3,4-dihydroisoquinolin-1(2H)-one], for which the pKi at WDR5 was 10.52. In assay [1], the GI50 turned out to be 80 nM.

Take `COc1cc2c(N3CCc4c(cc(Cn5ccnc5)cc4-c4cn(C)nc4C(F)(F)F)C3=O)nc(C)nc2cc1F` [Example 53, 7-((1H-Imidazol-1-yl)methyl)-2-(7-fluoro-6-methoxy-2-methylquinazolin-4-yl)-5-(1-methyl-3-(trifluoromethyl)-1H-pyrazol-4-yl)-3,4-dihydroisoquinolin-1(2H)-one]: on WDR5, the pKi was greater than 10.70. For the same compound, the GI50 in assay [1] is less than 20 nM.

Take `COc1cc2c(N3CCc4c(cc(Cn5ccnc5)cc4-c4cn(C)nc4C(F)(F)F)C3=O)nc(C)nc2cc1N1CCC1` [Example 54, 7-((1H-Imidazol-1-yl)methyl)-2-(7-(azetidin-1-yl)-6-methoxy-2-methylquinazolin-4-yl)-5-(1-methyl-3-(trifluoromethyl)-1H-pyrazol-4-yl)-3,4-dihydroisoquinolin-1(2H)-one]: at WDR5, the pKi was greater than 10.70. The GI50 in assay [1] amounted to 81 nM.

Consider `CNc1cc2nc(C)nc(N3CCc4c(cc(Cn5ccnc5)cc4-c4cn(C)nc4C(F)(F)F)C3=O)c2cc1OC` [Example 55, 7-((1H-Imidazol-1-yl)methyl)-2-(6-methoxy-2-methyl-7-(methylamino)quinazolin-4-yl)-5-(1-methyl-3-(trifluoromethyl)-1H-pyrazol-4-yl)-3,4-dihydroisoquinolin-1(2H)-one], for which, on WDR5, the pKi was greater than 10.70. Moreover, the GI50 in assay [1] came out at 47 nM.
